Experimental data taken from patent publication US9365584B2, “Thieno [2,3-B] pyridinedione activators of AMPK and therapeutic uses thereof” (Poxel, priority 2009, dated 2016).

System: ob/ob and db/db mice
Assay: not given
Details: 8 day AICAR administration; cited from earlier work

SMILES	reduces blood glucose [%]
NC(=O)c1ncn([C@@H]2O[C@H](CO)[C@@H](O)[C@H]2O)c1N [AICAR]	35

System: AMPK
Assay: AMPK enzyme activity assay (Delfia technology, AMARA peptide substrate)
Format: biochemical
Details: compound at 30 μM vs AMP at 200 μM
Summary of the method: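 Value is the ratio of compound (30 μM) to AMP (200 μM) response, each as % of basal control. Phosphorylation of the AMARA peptide after AMPK addition was read by Delfia with an anti-phosphoserine antibody.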

SMILES	Activity: Ratio between the % of control (basal activity) of compound of formula (1) at 30 μM and the % of control (basal activity) of AMP (natural substrate) at 200 μM
Cc1sc2c(c1-c1ccc(F)cc1O)C(=O)C(F)(c1ccccc1)C(=O)N2 (centres unmarked) [No 220, 5-fluoro-3-(4-fluoro-2-hydroxy-phenyl)-2-methyl-5-phenyl-7H-thieno[2,3-b]pyridine-4,6-dione]	B (50%≦B<75%)
O=C1Nc2sc(Cl)c(-c3ccccc3)c2C(=O)C1(Cl)c1ccccc1 (centres unmarked) [No 222, 2,5-dichloro-3,5-diphenyl-7H-thieno[2,3-b]pyridine-4,6-dione]	C (C≧75%)
CCc1ccc(-c2c(Cl)sc3c2C(=O)C(F)(c2ccccc2)C(=O)N3)c(O)c1 (centres unmarked) [No 223, 2-chloro-3-(4-ethyl-2-hydroxy-phenyl)-5-fluoro-5-phenyl-7H-thieno[2,3-b]pyridine-4,6-dione]	C (C≧75%)
N#Cc1cccc(C2(F)C(=O)Nc3sc(Cl)c(-c4ccc(F)cc4O)c3C2=O)c1 (centres unmarked) [No 224, 3-[2-chloro-5-fluoro-3-(4-fluoro-2-hydroxy-phenyl)-4,6-dioxo-7H-thieno[2,3-b]pyridin-5-yl]benzonitrile]	C (C≧75%)
COc1ccc(C2(F)C(=O)Nc3sc(Cl)c(-c4ccc(F)cc4O)c3C2=O)cc1C (centres unmarked) [No 225, 2-chloro-5-fluoro-3-(4-fluoro-2-hydroxy-phenyl)-5-(4-methoxy-3-methyl-phenyl)-7H-thieno[2,3-b]pyridine-4,6-dione]	C (C≧75%)
O=C1Nc2sc(Cl)c(-c3ccc(F)cc3O)c2C(=O)C1(F)c1ccsc1 (centres unmarked) [No 226, 2-chloro-5-fluoro-3-(4-fluoro-2-hydroxy-phenyl)-5-(3-thienyl)-7H-thieno[2,3-b]pyridine-4,6-dione]	C (C≧75%)
COc1c(-c2c(Cl)sc3c2C(=O)C(F)(c2ccc(F)cc2)C(=O)N3)ccc(C)c1F (centres unmarked) [No 227, 2-chloro-5-fluoro-3-(3-fluoro-2-methoxy-4-methyl-phenyl)-5-(4-fluorophenyl)-7H-thieno[2,3-b]pyridine-4,6-dione]	B (50%≦B<75%)
Cc1ccc(-c2c(Cl)sc3c2C(=O)C(F)(c2ccc(F)cc2)C(=O)N3)c(O)c1F (centres unmarked) [No 228, 2-chloro-5-fluoro-3-(3-fluoro-2-hydroxy-4-methyl-phenyl)-5-(4-fluorophenyl)-7H-thieno[2,3-b]pyridine-4,6-dione]	C (C≧75%)
COc1c(-c2c(Cl)sc3c2C(=O)C(F)(c2ccccc2)C(=O)N3)ccc(F)c1C (centres unmarked) [No 229, 2-chloro-5-fluoro-3-(4-fluoro-2-methoxy-3-methyl-phenyl)-5-phenyl-7H-thieno[2,3-b]pyridine-4,6-dione]	A (0%<A<50%)
COc1c(-c2c(Cl)sc3c2C(=O)C(F)(c2ccccc2)C(=O)N3)ccc(C)c1F (centres unmarked) [No 230, 2-chloro-5-fluoro-3-(3-fluoro-2-methoxy-4-methyl-phenyl)-5-phenyl-7H-thieno[2,3-b]pyridine-4,6-dione]	A (0%<A<50%)
COC1(c2ccccc2)C(=O)Nc2sc(Cl)c(-c3ccc(F)cc3O)c2C1=O (centres unmarked) [No 231, 2-chloro-3-(4-fluoro-2-hydroxy-phenyl)-5-methoxy-5-phenyl-7H-thieno[2,3-b]pyridine-4,6-dione]	C (C≧75%)
Cc1ccc(-c2c(Cl)sc3c2C(=O)C(Cl)(c2ccccc2)C(=O)N3)c(O)c1F (centres unmarked) [No 232, 2,5-dichloro-3-(3-fluoro-2-hydroxy-4-methyl-phenyl)-5-phenyl-7H-thieno[2,3-b]pyridine-4,6-dione]	C (C≧75%)
Cc1c(F)ccc(-c2c(Cl)sc3c2C(=O)C(Cl)(c2ccccc2)C(=O)N3)c1O (centres unmarked) [No 233, 2,5-dichloro-3-(4-fluoro-2-hydroxy-3-methyl-phenyl)-5-phenyl-7H-thieno[2,3-b]pyridine-4,6-dione]	C (C≧75%)
